Laboratory results as given in paper PMC11045757, “Group 3 medulloblastoma transcriptional networks collapse under domain specific EP300/CBP inhibition” (Nature Communications, 2024).
Several values for one entry are separate records, joined by “and”; a condition that tells them apart may be missing. Equal values may be shown once. Read-outs that look alike come from different tables or passages of the source.

Legend:
[1] = tested on: HDMB03 (HDMBO3) group 3 medulloblastoma cells; assay: CellTiter-Glo dose-response growth assay; assay type: cell-based; settings: HDMBO3 G3MB cell growth, read-out: IC50 (nM) HDMBO3
Method: CellTiter-Glo assay was performed as per the manufacturer’s instructions, at the noted timepoint after compound treatment or plating. For Kelly, TE617T, RhJT, NCIH2122, NCIH650 and 143B, 500 cells were plated in normal growth media per well in a 384-well plate (Corning). HDMB03 and MB002 cells were plated in growth media at 500 cells/well in a 384-well plate. […] Cells were incubated for the noted timepoints prior to performing CellTiter-Glo assay as per the manufacturer’s instructions, and reading plates on an Envision 2104 microplate reader.

EP300 bromodomain = target: T1, EP300 bromodomain (Homo sapiens, UniProt Q09472); assay: Differential scanning fluorimetry (DSF) thermal shift; assay type: binding; settings: DSF; for ∆Tm (°C) EP300: 5 μM protein, 100 μM compound, three independent experiments, average ± SD; for ΔTm (°C) EP300: Figure 3B
T1 construct: 6xHis (cleaved yes); host or cells: E. coli BL21 (DE3) RIL
T1 sequence (Q09472 1048-1161): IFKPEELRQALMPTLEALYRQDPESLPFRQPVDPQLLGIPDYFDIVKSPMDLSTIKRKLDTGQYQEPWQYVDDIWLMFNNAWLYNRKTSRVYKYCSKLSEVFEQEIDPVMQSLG
In short: (§1)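 Thermal shift of 5 μM E. coli-expressed bromodomain with 100 μM compound in 50 mM HEPES pH 7.5, 150 mM NaCl, 2 mM DTT, 2% DMSO, 5X SYPRO Orange, quadruplicate. Heated 25→95 °C at 1 °C/min, fluorescence at 610 nm; ΔTm relative to DMSO reference wells.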

BRD4-BD1 (BRD4-1) [2] = target: T2, BRD4-BD1 (BRD4-1) (Homo sapiens, UniProt O60885); assay: as above; assay type: binding; settings: DSF; for ∆Tm (°C) BRD4-1: 5 μM protein, 100 μM compound, three independent experiments, average ± SD; for ΔTm (°C) BRD4-BD1: Figure 3A
T2 construct: BRD4-BD1 (residues 44-168); 6xHis (cleaved yes); host or cells: E. coli BL21 (DE3) RIL
In short: as §1

CBP bromodomain [3] = target: T3, CBP bromodomain (Homo sapiens, UniProt Q92793); assay: as above; assay type: binding; settings: for ∆Tm (°C) CBP / ΔTm (°C) CBP: DSF; for ∆Tm (°C) CBP: 5 μM protein, 100 μM compound, three independent experiments, average ± SD; for DSF ΔTm (°C): Figure 3C, DSF (values equal CBP column)
T3 construct: CBP (residues 1081-1197); 6xHis (cleaved yes); host or cells: E. coli BL21 (DE3) RIL
T3 sequence (Q92793 1081-1197): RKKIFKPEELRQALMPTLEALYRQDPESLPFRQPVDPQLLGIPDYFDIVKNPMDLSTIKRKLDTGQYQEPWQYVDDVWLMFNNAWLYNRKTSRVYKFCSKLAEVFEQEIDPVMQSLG

CBP bromodomain [4] = assay: as above; assay type: binding; settings: ΔTm (CBP)/ΔTm(BRD4)
BRD4-BD1 (BRD4-1) [5] = target: T2, BRD4-BD1 (BRD4-1); assay: Isothermal titration calorimetry (ITC); assay type: binding; settings: relative to CCS1477
Method: At OD600 of 0.6, the culture was cooled down to 18 °C and induced with 0.1 mM IPTG. After 18 h growth, the culture was harvested by centrifugation at 6000 × g for 25 min and stored at -80 °C. Harvested cell pellets were re-suspended in 50 mM Na/K phosphate buffer (pH 7.4) containing 100 mM NaCl, 40 mM imidazole, 0.01% w/v lysozyme and 0.01% v/v Triton X-100 at 4 °C for 1 h, subjected to sonication and the lysate was clarified by centrifugation (30,000 × g for 45 min at 4 °C). Proteins were purified by FPLC at 4 °C using columns and chromatography materials from GE Healthcare. […] Proteins were purified to homogeneity by size exclusion chromatography using Superdex 75 equilibrated with elution buffer (50 mM HEPES pH 7.5, 100 mM NaCl, 2 mM DTT). All BRDs eluted as monomeric protein and were of crystallization grade quality (>95% purity as judged by SDS-PAGE). Pool fractions were combined, concentrated to 10–12 mg/ml, and aliquots were flash-frozen in liquid N2 and stored at −80 °C.
All experiments were conducted using an PEAQ-ITC calorimeter (Malvern Scientific). BRDs were buffer exchanged using PD10 columns (GE life sciences) into 50 mM HEPES pH7.5 and 100 mM NaCl (ITC buffer) before the experiment and concentrated to ∼10 mg/mL. Experiments were carried out in ITC buffer while stirring at 750 rpm through reverse titration. The microsyringe (40 μL load volume) was loaded with the protein sample (250–600 μM protein in ITC buffer) and inserted into the calorimetric cell (0.2 mL cell volume) consisting of compound (20–60 μM in ITC buffer). All titrations were conducted using an initial control injection of 0.2 μL followed by 13 identical injections (~3 μL per injection) with a duration of 2 s (per injection) and a spacing of 150 s between injections. The ratio of protein/compound was optimized to ensure complete saturation of the titrant before the final injection to ensure proper baseline determination. Data were corrected for dilution and analyzed using the MicroCal Origin software to determine the enthalpies of binding (ΔH) and binding constants as described. Thermodynamic parameters were calculated using the basic equation of thermodynamics (ΔG = ΔH − TΔS = −RTlnKB) where ΔG, ΔH and ΔS are the changes in free energy, enthalpy and entropy of binding, respectively. A single binding site model was used for all ligand-protein interactions.

[6] = target: GFP-tagged CBP bromodomain (Homo sapiens, UniProt Q92793); assay: Microscale thermophoresis (MST); assay type: binding; settings: for Response (Dose Response Curve): MST raw response
Chain of GFP-tagged CBP bromodomain (Q92793 1085-1192 limits assumed): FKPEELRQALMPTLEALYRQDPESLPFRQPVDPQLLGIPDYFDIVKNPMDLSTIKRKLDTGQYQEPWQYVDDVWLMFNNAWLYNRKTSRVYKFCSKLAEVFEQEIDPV
Method: MST experiments were performed in a Monolith NT.115 Pico instrument (NanoTemper Technologies) following published procedures. […] MST traces were recorded using standard parameters: 5 s MST power off, 30 s MST power on and 5 s MST power off. Measurements were taken at -1-0 s (cold region) and 10 s (hot region) and data were analyzed using the NTAnalysis software.

[7] = three independent MST experiments, average ± SD, read-out: Kd (nM) CBP

Row | Structure (SMILES) | ∆Tm (°C) EP300 (EP300 bromodomain) [°C] | ΔTm (°C) EP300 (EP300 bromodomain) [°C] | ∆Tm (°C) BRD4-1 (BRD4-BD1 (BRD4-1) [2]) [°C] | ΔTm (°C) BRD4-BD1 (BRD4-BD1 (BRD4-1) [2]) [°C] | ∆Tm (°C) CBP (CBP bromodomain [3]) [°C] | ΔTm (°C) CBP (CBP bromodomain [3]; Figure 3A, CBP bromodomain) [°C] | ΔTm (°C) CBP (CBP bromodomain [3]; Figure 3B, CBP) [°C] | DSF ΔTm (°C) (CBP bromodomain [3]) | Ratio CBP/BRD4 of ∆Tm (CBP bromodomain [4]) | Kd [6, 7] | IC50 ([1]; Homo sapiens, HD-MB03) [nM] | other results
1 | COC1CCC(n2c(C3CCCC(=O)N3)nc3cc(-c4c(C)noc4C)ccc32)CC1 (stereo not shown) [Compound 2] | 5.6 ± 0.12 | 5.6 | 2.9 ± 0.11 | 2.9 | 5.6 ± 0.05 | 5.6 | 5.6 | 5.6 | 1.9 | 1770 ± 234 nM |  | IC50 [1]: > 100000 nM; ∆Tm (°C) BRD4-1 (BRD4-BD1 (BRD4-1) [2]; listed as CCS1447int2): 2.9 °C; ∆Tm (°C) CBP (CBP bromodomain [3]; listed as CCS1447int2): 5.6 °C; reduction of activity against BRD4 (BRD4-BD1 (BRD4-1) [5]): ~ 10 fold; Kd ([6]; MO.Affinity Analysis export, single runs, target clGFP-CBPBRD 5e-8, unit inferred, listed as CCS1477int2, read-out: Kd (fit result of individual MST run)): 1770 nM and 1540 nM and 2010 nM
2 | COC1CCC(n2c(C3CCCC(=O)N3c3ccccc3)nc3cc(-c4c(C)noc4C)ccc32)CC1 (stereo not shown) [Compound 5] | 14.8 ± 0.45 | 14.8 | 5.5 ± 0.17 | 5.5 | 14.6 ± 0.16 | 14.6 | 14.6 | 14.6 | 2.7 | 31.4 ± 14.2 nM | 108 ± 25 | Response (Dose Response Curve) ([6]; Dose 1.52588e-10, single replicate run, listed as iCBP-5): 914.717 and 915.838; Response (Dose Response Curve) ([6]; Dose 3.05176e-10, single replicate run, listed as iCBP-5): 915.243 and 914.96; Response (Dose Response Curve) ([6]; Dose 6.10352e-10, single replicate run, listed as iCBP-5): 914.396 and 915.476; Response (Dose Response Curve) ([6]; Dose 1.2207e-9, single replicate run, listed as iCBP-5): 915.983 and 915.524; Response (Dose Response Curve) ([6]; Dose 2.44141e-9, single replicate run, listed as iCBP-5): 915.86 and 916.029; Response (Dose Response Curve) ([6]; Dose 4.88281e-9, single replicate run, listed as iCBP-5): 914.611 and 915.107; Response (Dose Response Curve) ([6]; Dose 9.76563e-9, single replicate run, listed as iCBP-5): 914.911 and 914.67; Response (Dose Response Curve) ([6]; Dose 1.95313e-8, single replicate run, listed as iCBP-5): 915.602 and 914.588; Response (Dose Response Curve) ([6]; Dose 3.90625e-8, single replicate run, listed as iCBP-5): 913.799 and 914.854; Response (Dose Response Curve) ([6]; Dose 7.8125e-8, single replicate run, listed as iCBP-5): 913.08 and 913.563; Response (Dose Response Curve) ([6]; Dose 1.5625e-7, single replicate run, listed as iCBP-5): 911.965 and 911.667; Response (Dose Response Curve) ([6]; Dose 3.125e-7, single replicate run, listed as iCBP-5): 909.591 and 910.599; Response (Dose Response Curve) ([6]; Dose 6.25e-7, single replicate run, listed as iCBP-5): 911.215 and 910.906; Response (Dose Response Curve) ([6]; Dose 1.25e-6, single replicate run, listed as iCBP-5): 911.169 and 911.287; Response (Dose Response Curve) ([6]; Dose 2.5e-6, single replicate run, listed as iCBP-5): 914.21 and 911.877; Response (Dose Response Curve) ([6]; Dose 5e-6, single replicate run, listed as iCBP-5): 912.484 and 912.12; Kd ([6]; MST, single replicate run, target clGFP-CBPBRD, TargetConcentration 5e-8, MST-Power Medium, unit inferred, read-out: Kd (Fit Results, Fit Model: Kd)): 16.1 nM and 33.7 nM; Bound (Fit Results) ([6]; fitted MST response of bound state, single replicate run, target clGFP-CBPBRD 5e-8, listed as iCBP-5): 911.766 and 911.236; Unbound (Fit Results) ([6]; fitted MST response of unbound state, single replicate run, target clGFP-CBPBRD 5e-8, listed as iCBP-5): 915.376 and 915.584; loss of binding affinity (CBP) ([6]; relative to CCS1477): ~ 10 fold
3 | COC1CCC(n2c(C3CCCC(=O)N3c3cccc(C(C)(C)C)c3)nc3cc(-c4c(C)noc4C)ccc32)CC1 (stereo not shown) [Compound 6] | 14.3 ± 0.19 |  | 3.2 ± 0.13 |  | 15.3 ± 0.2 |  |  |  | 4.8 | 30 ± 21.6 nM | 558 ± 335 | 
4 | COC1CCC(n2c(C3CCCC(=O)N3c3ccc4c(c3)OCCO4)nc3cc(-c4c(C)noc4C)ccc32)CC1 (stereo not shown) [Compound 7] | 13.5 ± 0.89 | 13.5 | 6.9 ± 0.23 | 6.9 | 15.5 ± 0.14 | 15.5 | 15.5 | 15.5 | 2.2 | 17 nM and 16.9 nM | 452 ± 217 | Kd ([6]; MO.Affinity Analysis export, single runs, target clGFP-CBPBRD 5e-8, unit inferred, read-out: Kd (fit result of individual MST run)): 15.5 nM and 27.7 nM and 7.4 nM
